Like-named read-outs stand apart in the source and are kept apart here.
Assays:
Assay type in all cases: cell-based
[1] = test system: T47D; experiment: Cell viability assay (Cell Titer-Glo), T47D; details: for EC50: Homo sapiens, 96 hours
Method: (§1) The cell viability was determined using the Cell Titer-Glo luminescent cell viability assay, according to the manufacturer's instructions. Luminescence was measured using a PHERAstar FS microplate reader (BMG LABTECH, German). The half-maximal inhibitory concentration (IC50) values were calculated using the prism plot software. The effects of treatments were measured by conducting three independent experiments.

[2] = test system: MCF7; experiment: Cell viability assay (Cell Titer-Glo), MCF7; details: for EC50: Homo sapiens, 72 hours
Method: as §1

[3] = test system: T47D; experiment: Colony formation / survival assay, T47D
Method: (§2) Colony Formation or Survival Asasys: Cells were seeded in 12-well plates in triplicates at a density of 600 cells per well for MCF7 and 800 cells per well for T47D cells. Cells were treated after overnight incubated. Medium was changed every 3-4 days until cluster of colonies were formed. The plates were incubated for 7 days for MCF7 cells and xx days for T47D cells. Colonies in the plate were fixed and stained with Formaldehyde (1.0% v/v), Methanol (1%) and crystal violet (1% w/v) for xx min; thoroughly washed with water and air dry and counted using with automated colony counter (Gel counter. OXFORD OPTRONIC Inc). Results are present as average colony count ±SD.
(§3) Impact on cell growth can also be evaluated in colony survival assays. To evaluate the effect of compound (I-1) on colony survival, MCF7 and T47D were plated at low density and treated with several doses of compound (I-1) alone and in combination with fulvestrant. The number of colonies formed after 7 days in culture was evaluated (FIG. 9). […] In the presence of fulvestrant, colony number was reduced 73%, and 20 nM compound (I-1) further reduced colony number by 92%. […] In the presence of fulvestrant, colony number was reduced 41%.

[4] = test system: MCF7; experiment: Colony formation / survival assay, MCF7; details: 7 days
Method: as §2, §3

[5] = test system: ER targets GREB1, MYC, and PGR; experiment: Protein expression of ER targets in MCF7 and T47D (FIG. 1); details: 24 hours
Source text: (§4) ER, when bound by estrogen or […] such as fulvestrant, undergoes a conformational change that promotes ubiquitination and degradation of the receptor.

[6] = test system: ER; experiment: ER protein expression in MCF7 and T47D (FIG. 1); details: 24 hours
Source text: as §4

[7] = compound (I-1) alone, read-out: average EC50, cell viability
[8] = in the presence of fulvestrant, read-out: EC50, cell viability
[9] = 20 nM compound (I-1) in the presence of fulvestrant
[10] = single agent fulvestrant treatment

Cc1noc(C)c1-c1cc(C(O)(c2ccccn2)c2ccccn2)c2nc(C3CC3)[nH]c2c1 [compound (I-1), (2-cyclopropyl-6-(3,5-dimethylisoxazol-4-yl)-1H-benzo[d]imidazol-4-yl)di(pyridin-2-yl)methanol]
EC50 [1, 7]: 95.3 ± 16.5 nM
EC50 [1, 8]: 64 ± 5 nM
increase in potency (EC50 alone vs in combination with fulvestrant) ([1]; p value 0.0030): 1.5 fold
EC50 [2, 7]: 61.3 ± 8.4 nM
EC50 [2, 8]: 25 ± 10.6 nM
increase in potency (EC50 alone vs in combination with fulvestrant) ([2]; p value 0.00027): 2.5 fold
effect on colony number ([3]; 20 nM compound (I-1) alone): no significant effect
effect on colony number [3, 9]: no significant effect
reduced colony number ([3]; 60 nM compound (I-1) alone): 53%
further reduced colony number ([3]; 60 nM compound (I-1) in the presence of fulvestrant): 66%
reduced colony number ([3]; 120 nM compound (I-1) alone): 60%
further reduced colony number ([3]; 120 nM compound (I-1) in the presence of fulvestrant): 78%
reduced colony number ([4]; 20 nM compound (I-1) alone): 48%
further reduced colony number [4, 9]: 92%
effect on colonies ([4]; 60 nM compound (I-1) alone): nearly all colonies eliminated
effect on colonies ([4]; 120 nM compound (I-1) alone): nearly all colonies eliminated
ER target (GREB1, MYC, PGR) expression ([5]; addition of 50 or 100 nM compound (I-1)): consistently reduced target expression
ER target (GREB1, MYC, PGR) protein reduction ([5]; combination of fulvestrant and compound (I-1)): most pronounced protein reduction
ER protein expression ([6]; 100 or 50 nM compound (I-1) added under estrogen or fulvestrant treatments): further reduced ER protein expression

C[C@]12CC[C@@H]3c4ccc(O)cc4C[C@@H](CCCCCCCCC[S+]([O-])CCCC(F)(F)C(F)(F)F)[C@H]3[C@@H]1CC[C@@H]2O (stereo partly shown) [fulvestrant, reference compound]
reduced growth (average) [1, 10]: 35.8±5.0%
reduced growth (average) [2, 10]: 47.0±19.6%
colony number reduced ([3]; fulvestrant alone): 41%
colony number reduced ([4]; fulvestrant alone): 73%
estrogen induction of GREB1, MYC, PGR protein expression ([5]; in the presence of fulvestrant (12 nM)): significantly reduced
ER protein levels ([6]; 12 nM Fulvestrant): reduced ER protein levels

Source: US20180153868A1, “TREATMENT OF BREAST CANCER BY CONCOMITANT ADMINISTRATION OF A BROMODOMAIN INHIBITOR AND A SECOND AGENT” (Gilead Sciences, Inc., priority 2016, published 2018)
